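These data come from cells grown in 96-well plates and exposed to compound for 48 hours at five concentrations. GI50 is the concentration that inhibits growth by half.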 Calls of active or inactive are those of the source. Rule as the data show it: active = GI50 up to about 1.1 µM and inactive = higher.
What was measured:
Assay in all cases: DTP human tumour cell line panel, 48 h
[1] = tested on: HOP-62
[2] = tested on: CAKI-1
[3] = tested on: RXF 393
[4] = tested on: UACC-62
[5] = tested on: NCI-H522
[6] = tested on: SNB-75
[7] = tested on: OVCAR-4
[8] = tested on: SK-MEL-28
[9] = tested on: XF498
[10] = tested on: CCRF-CEM
[11] = tested on: NCI-H226
[12] = tested on: DMS-114
[13] = tested on: M19-MEL
[14] = tested on: HOP-92
[15] = tested on: UO-31
[16] = tested on: DLD-1
[17] = tested on: TK-10
[18] = tested on: HCC 2998
[19] = tested on: DMS-273
[20] = tested on: HT-29
[21] = tested on: ACHN
[22] = tested on: HCT-116
[23] = tested on: HCT-15
[24] = tested on: OVCAR-8
[25] = tested on: OVCAR-5
[26] = tested on: RPMI-8226
[27] = tested on: EKVX
[28] = tested on: Malme-3M
[29] = tested on: SR
[30] = tested on: SF-295
[31] = tested on: COLO 205
[32] = tested on: U-251
[33] = tested on: SN12C
[34] = tested on: SK-MEL-5
[35] = tested on: SK-MEL-2
[36] = tested on: IGROV-1
[37] = tested on: SF-268
[38] = tested on: SF-539
[39] = tested on: LXFL 529
[40] = tested on: NCI-H460
[41] = tested on: KM12
[42] = tested on: SNB-19
[43] = tested on: 786-0
[44] = tested on: OVCAR-3
[45] = tested on: UACC-257
[46] = tested on: A498
[47] = tested on: HOP-18
[48] = tested on: A549
[49] = tested on: K562
[50] = tested on: MOLT-4
[51] = tested on: KM-20L2
[52] = tested on: M14
[53] = tested on: SK-OV-3
[54] = tested on: LOX IMVI
[55] = tested on: HL-60
[56] = tested on: NCI-H23
[57] = tested on: SNB-78
[58] = tested on: SW-620

In the case of C=C[C@@H](C)[C@]1(C(=O)OC)CCCC12OCCO2, the GI50 [1] was > 100 µM (inactive), the GI50 [2] was > 100 µM (inactive) and the GI50 [3] was > 100 µM (inactive). For the same molecule, the GI50 [4] was > 100 µM (inactive), the GI50 [5] was 82.2 µM (inactive) and the GI50 [6] was > 100 µM (inactive). For the same molecule, the GI50 [7] was > 100 µM (inactive), the GI50 [8] was > 100 µM (inactive) and the GI50 [9] was > 100 µM (inactive). The GI50 [10] was > 100 µM (inactive), the GI50 [11] was > 100 µM (inactive) and the GI50 [12] was > 100 µM (inactive). For the same molecule, the GI50 [13] was > 100 µM (inactive), the GI50 [14] was > 100 µM (inactive) and the GI50 [15] was > 100 µM (inactive). For the same molecule, the GI50 [16] was > 100 µM (inactive), the GI50 [17] was > 100 µM (inactive) and the GI50 [18] was > 100 µM (inactive). For the same molecule, the GI50 [19] was 39.3 µM (inactive), the GI50 [20] was > 100 µM (inactive) and the GI50 [21] was > 100 µM (inactive). The GI50 [22] was > 100 µM (inactive), the GI50 [23] was 94.2 µM and the GI50 [24] was > 100 µM (inactive). The GI50 [25] was > 100 µM (inactive), the GI50 [26] was 72.9 µM (inactive) and the GI50 [27] was > 100 µM (inactive). For the same molecule, the GI50 [28] was > 100 µM (inactive), the GI50 [29] was 68.5 µM (inactive) and the GI50 [30] was > 100 µM (inactive). For the same molecule, the GI50 [31] was > 100 µM (inactive), the GI50 [32] was > 100 µM (inactive) and the GI50 [33] was > 100 µM (inactive). For the same molecule, the GI50 [34] was > 100 µM (inactive), the GI50 [35] was > 100 µM (inactive) and the GI50 [36] was > 100 µM (inactive). For the same molecule, the GI50 [37] was > 100 µM (inactive), the GI50 [38] was > 100 µM (inactive) and the GI50 [39] was > 100 µM (inactive). For the same molecule, the GI50 [40] was > 100 µM (inactive), the GI50 [41] was > 100 µM (inactive) and the GI50 [42] was > 100 µM (inactive). For the same molecule, the GI50 [43] was 63.8 µM (inactive), the GI50 [44] was > 100 µM (inactive) and the GI50 [45] was > 100 µM (inactive). For the same molecule, the GI50 [46] was > 100 µM (inactive), the GI50 [47] was > 100 µM (inactive) and the GI50 [48] was > 100 µM (inactive). For the same molecule, the GI50 [49] was > 100 µM (inactive), the GI50 [50] was > 100 µM (inactive) and the GI50 [51] was > 100 µM (inactive). For the same molecule, the GI50 [52] was > 100 µM (inactive), the GI50 [53] was > 100 µM (inactive) and the GI50 [54] was > 100 µM (inactive). The GI50 [55] was > 100 µM (inactive).
CCn1c2ccccc2c2c(-c3ccccc3)cc3c(c21)C(=O)N(c1ccccc1)C3=O was tested, and the GI50 [1] was > 10 µM (inactive), the GI50 [56] was > 100 µM (inactive) and the GI50 [2] was > 100 µM (inactive). For the same molecule, the GI50 [4] was > 100 µM (inactive), the GI50 [5] was > 100 µM (inactive) and the GI50 [6] was 89.5 µM (inactive). For the same molecule, the GI50 [7] was > 100 µM (inactive), the GI50 [8] was > 100 µM (inactive) and the GI50 [9] was > 100 µM (inactive). For the same molecule, the GI50 [10] was > 100 µM (inactive), the GI50 [11] was > 100 µM (inactive) and the GI50 [12] was > 100 µM (inactive). The GI50 [13] was > 100 µM (inactive), the GI50 [14] was 34.4 µM (inactive) and the GI50 [15] was > 100 µM (inactive). For the same molecule, the GI50 [16] was > 100 µM (inactive), the GI50 [17] was > 100 µM (inactive) and the GI50 [18] was > 100 µM (inactive). The GI50 [19] was 46.2 µM (inactive), the GI50 [57] was > 100 µM (inactive) and the GI50 [21] was 99.8 µM (inactive). For the same molecule, the GI50 [22] was 95.5 µM (inactive), the GI50 [23] was > 100 µM and the GI50 [24] was > 100 µM (inactive). For the same molecule, the GI50 [25] was > 100 µM (inactive), the GI50 [58] was > 100 µM (inactive) and the GI50 [27] was > 100 µM (inactive). For the same molecule, the GI50 [28] was > 100 µM (inactive), the GI50 [29] was > 100 µM (inactive) and the GI50 [30] was > 100 µM (inactive). For the same molecule, the GI50 [31] was > 100 µM (inactive), the GI50 [32] was > 100 µM (inactive) and the GI50 [33] was 91 µM (inactive). The GI50 [34] was > 100 µM (inactive), the GI50 [35] was > 100 µM (inactive) and the GI50 [36] was > 100 µM (inactive). The GI50 [37] was 76.6 µM (inactive), the GI50 [38] was > 100 µM (inactive) and the GI50 [39] was > 100 µM (inactive). For the same molecule, the GI50 [40] was 36.6 µM (inactive), the GI50 [41] was > 100 µM (inactive) and the GI50 [42] was 81.5 µM (inactive). For the same molecule, the GI50 [43] was > 100 µM (inactive), the GI50 [44] was > 100 µM (inactive) and the GI50 [45] was > 100 µM (inactive). The GI50 [46] was > 100 µM (inactive), the GI50 [48] was > 100 µM (inactive) and the GI50 [49] was > 100 µM (inactive). The GI50 [50] was > 100 µM (inactive), the GI50 [51] was > 100 µM (inactive) and the GI50 [52] was > 100 µM (inactive). For the same molecule, the GI50 [53] was > 100 µM (inactive), the GI50 [54] was > 100 µM (inactive) and the GI50 [55] was > 100 µM (inactive).

Source: ChEMBL document CHEMBL1201862, “PubChem BioAssay data set” (2004)
